Measured values as given in US5594024A, “Centrally actig substituted phenylazacycloalkanes” (priority 1995, dated 1997).
Like-named read-outs stand apart in the source and are kept apart here.

Experiments:
[1] = in vivo; parameters: species or system rat (male Sprague-Dawley); conditions: rat
Protocol: This is in contrast to the actions of the preferential dopamine autoreceptor antagonists (+)-AJ76 and (+)-UH232 5. The blood levels of (±)-34 were measured after oral (40 μmol/kg) and iv (5 μmol/kg) administration of the drug to male Sprague-Dawley rats (250-300 g) that were cannulated with catheters in the jugular vein and the arteria carotis. The levels of (±)-34 were measured in whole blood by means of GC-MS. […] The oral availability is considerably better than the values obtained for (+)-UH232 and (+)-AJ76 (approximately 6 and 3%, respectively).

[2] = tested on: central dopamine receptors; conditions: Hacksell et al., J. Med. Chem., 24, 1475 (1981); cited from earlier work
[3] = tested on: d-amphetamine-induced hyperactivity; experiment: d-Amphetamine-induced hyperactivity in habituated rats; format: in vivo, rat; conditions: test compound 14 mg/kg, sc; d-amphetamine 5 mg/kg
[4] = tested on: DA receptor; conditions: after NSD1015; Johansson et al.; cited from earlier work
[5] = tested on: non-pretreated rats; conditions: Johansson et al.; cited from earlier work
[6] = tested on: DA receptor; conditions: no NSD1015 treatment; Johansson et al.; cited from earlier work
[7] = comparison values, source not given; cited from earlier work
[8] = tested on: D3; conditions: Sokoloff, et al., Nature, 347 146-51 (1990); series of classical and atypical neuroleptics; cited from earlier work
[9] = target: T1, D2 receptors (Rattus norvegicus, UniProt P61169); experiment: D2 antagonist binding ([3H]-spiperone), rat striatum
T1 construct: Preparation of rat striatal membranes for (3H)-spiperone; from tissue; host or cells: rat striatum (striatal membranes)
Protocol: D2 antagonist binding. Preparation of rat striatal membranes for (3H)-spiperone (specific activity 21-24 Ci/mmol) binding was carried out in a similar manner as described for D1-binding, Hyttel et al., J. Neural. Transm., 68, 171 (1987).
IC50 values were calculated by semi-log plot and linear regression analysis.

[10] = target: T2, 5-HT1A (Rattus norvegicus, UniProt P19327); experiment: 5-HT1A radioligand binding ([3H]-8-OH-DPAT); parameters: species or system rat (male Sprague-Dawley); conditions: [3H]-8-OH-DPAT, rat cortex; read-out: in vitro binding IC50, 5HT1A
T2 construct: the whole brain with the exception of the brainstem and cerebellum was rapidly removed; from tissue
T2 sequence (P19327 1-422): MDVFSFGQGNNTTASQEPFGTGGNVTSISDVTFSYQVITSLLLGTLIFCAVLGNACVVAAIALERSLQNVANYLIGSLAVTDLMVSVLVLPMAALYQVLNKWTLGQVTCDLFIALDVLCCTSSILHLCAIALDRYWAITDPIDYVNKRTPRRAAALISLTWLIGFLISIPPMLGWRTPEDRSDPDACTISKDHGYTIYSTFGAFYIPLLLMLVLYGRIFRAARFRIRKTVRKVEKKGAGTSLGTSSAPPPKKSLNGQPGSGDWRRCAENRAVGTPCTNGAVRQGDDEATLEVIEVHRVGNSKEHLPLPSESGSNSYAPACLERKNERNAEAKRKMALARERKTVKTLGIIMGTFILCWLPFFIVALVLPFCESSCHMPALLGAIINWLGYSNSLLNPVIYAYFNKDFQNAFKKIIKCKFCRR
Protocol: ^b Serotonin 5HT1A ([^3 H]-8OH-DPAT, agonist) rat cortex.
5-HT1A radioligand binding. Male Sprague-Dawley rats (160-225 g) were killed by decapitation and the whole brain with the exception of the brainstem and cerebellum was rapidly removed, weighed and chilled in ice-cold 0.9% NaCl. Each brain was homogenized (Ultra-Turrax, 20 s) in 10 mL ice-cold 50 mM Tris buffer (pH 8.0 at 25° C.) containing 120 mM NaCl, 4 mM CaCl2 and 4 mM MgCl2 and centrifuged at 20,000 g's at 4° C. for 10 minutes. Pellets were resuspended in 10 mL fresh buffer and preincubated for 10 minutes in a 37° C. waterbath and then recentrifuged. Final pellets were homogenized in 100 volumes (w/v) of Tris buffer (as described above) containing 10 μM pargyline. The incubation tubes were kept on ice in triplicates and received 100 μL drug solution in water (or water for total binding) and 1000 μL membrane suspension (corresponds to 10 mg original tissue). The binding experiment was initiated by addition of 100 μL of (3H)-8-OH-DPAT (specific activity 143-158 Ci/mmol) in ascorbic acid (the final incubation concentration was 1 nM (3H)-8-OH-DPAT in 0.1% ascorbic acid). After incubation for 15 minutes at 37° C. the reaction was terminated by separation of the free radioligand from bound by rapid vacuum filtration using a cell harvester equipment (O. M. Teknik, Denmark). The tubes were rinsed with 4 mL and the filters (Whatman GF/F 25 mm) were washed twice with 4 mL ice-cold 0.9% NaCl.
The radioactivity of the filters was measured in a liquid scintillation counter (efficiency 41%) in 5 mL Picofluor®. Specific binding (70-75% of total binding) was defined as the radioactivity displaced by 10 μM 5-HT. IC50 values were calculated by semi-log plot and linear regression analysis.

[11] = tested on: 5-HT receptor; experiment: 5-HTP accumulation (5-HT synthesis rate) in non-pretreated rats after NSD 1015; format: in vivo, rat (male Sprague-Dawley)
Protocol: observations are commented to the right. After the session the rats were
accumulation in the NErich cortical regions and 5HTP in the limbic
(§1) Injection volumes were 5 mL/kg.

[12] = tested on: DA receptor; experiment: DA metabolism (DOPAC, HVA levels) in habituated rats; format: in vivo, rat (male Sprague-Dawley); conditions: for response vs control in vivo at 100 µmol/kg: Rattus norvegicus, sc, 1 h
Protocol: (§2) Footnotes Table 3. The rats were habituated to the motility meters 60 min
The rats were immediately killed after the activity session, striata
and limbic levels of DOPAC and 5HIAA were measured by means of HPLCEC. *p
In the experiments with habituated rats no NSD was administered and the animals were killed one hour after drug administration. […] The levels were expressed as % of controls (DOPAC and 5-HIAA see Table 3). The in vivo brain microdialysis experiments were performed in conscious rats as described by Waters et al., Eur. J. Pharm., 187, 425-34 (1990).
as §1
After the activity session the rats were killed and the brain levels of HVA and DOPAC were measured (data are expressed as means ±SEM).

[13] = tested on: habituated rats; experiment: Locomotor activity and behavior in habituated rats; format: in vivo, rat (male Sprague-Dawley); conditions: habituated rats
Protocol: as §2
prior to the activity session.
as §1
Locomotor activity was measured in rats which were habituated 60 minutes to the activity meters before drug injection. The activity was measured for the subsequent 60 minutes and expressed as % of controls (means ±SEM, n=4).

[14] = tested on: central dopamine receptors; experiment: Locomotor activity and DA synthesis in reserpinized rats; format: in vivo, rat
[15] = tested on: DA receptor; experiment: DOPA accumulation (DA synthesis rate) in non-pretreated rats after NSD 1015
Protocol: injected with NSD 1015 (100 mg/kg, i.p.) and then killed 30 min later.
In-vivo determination of rat brain monoamine metabolites and tyrosine and tryptophan hydroxylation (biochemically monitored DA and 5-HT receptor agonist or antagonist activity).
The compounds under evaluation were tested biochemically for central DA and 5-HT receptor (pre- and/or postsynaptic) stimulating and/or blocking activity. The concept of this biochemical screening method is that a DA or 5-HT receptor agonist will stimulate the receptor and through regulatory negative feed-back systems induce a decline in tyrosine or tryptophan hydroxylating activity, respectively, and a subsequent reduction in the synthesis rate of DA and 5-HT in the presynaptic neuron. […] The biochemical experiments and the determinations of Dopa and 5-HTP by means of HPLC with electrochemical detection were performed. The antagonistic effects were seen as increases in the synthesis rate (n=4), as a result of the positive feed-back upregulation of synthesis. The effects on Dopa and 5-HTP accumulation are expressed as % of controls, which were: DOPA limbic system=447±23 ng/g and DOPA striatum=1045±47ng/g, 5-HTP limbic region 241±2 ng/g (Table 2).
(§3) Animals used in the biochemical and motor activity experiments were male rats of the Sprague-Dawley strain (ALAB, Sollentuna, Sweden), weighing 200-300 g. The rats were kept 5 per cage with free access to water and food (except for the starved animals for the experiments with per oral administration, who were only allowed water the last 18 hours before testing), at least one week from arrival until used in the experiments.
(§4) All substances to be tested were dissolved in saline immediately before use, occasionally with the addition of a few drops of glacial acetic acid and/or moderate heating in order to obtain complete dissolution. Injection volumes were 5 mL/kg.
Analysis of variance (ANOVA) followed by Fischer's test was used for the statistical calculations. P values less than 0.05 were regarded statistically significant.
DOPA accumulation (DA synthesis rate) in non-pretreated rats (Table 2). After the locomotor activity session (see Table 2, above) the rats were injected with the decarboxylase inhibitor NSD 1015 (100 mg/kg, sc) and killed 30 minutes later. The DOPA accumulation in the DA -rich limbic and striatal and the NE-rich cortical (mainly hemispheres) brain areas were expressed as % of saline treated controls.
DOPA accumulation, time course after s.c. and p.o. administration (Table 2). […] NSD 1015 (100 mg/kg, sc) was injected 30 minutes before death. The data are expressed as % of saline treated controls.

[16] = tested on: non-pretreated rats; experiment: Locomotor activity and gross behavior in non-habituated (non-pretreated) rats; conditions: non-pretreated rats
Source text: Immediately after drug administration, the rats were placed in the test cages (one rat/cage) and put into the motility meters. […] Observations of gross behavior were made throughout the activity sessions through semi-transparent mirrors.
as §3, §4
Analysis of variance (ANOVA) followed by Fischer's test was used for the statistical calculations.
In vivo behavioral data was obtained with rats injected with drug and 5 minutes later put into the motility chambers for the first time. The motor activity was measured for the subsequent 30 minutes (accumulated counts/30 minutes) and expressed as % of saline treated controls.

[17] = tested on: dopamine autoreceptors; experiment: GBL-model (DA synthesis rate; presynaptic dopamine autoreceptors); format: in vivo, rat; conditions: apomorphine […], sc; GBL 750 mg/kg, i.p.
Source text: The effects on DOPA accumulation in the GBL-model is considered to reflect an event at the presynaptic dopamine autoreceptors (for further details, see Svensson et al., Nunyn-Schmiedeberg's Arch. Pharm., 334, 234(1986)).

T1 sequence (P61169 whole entry): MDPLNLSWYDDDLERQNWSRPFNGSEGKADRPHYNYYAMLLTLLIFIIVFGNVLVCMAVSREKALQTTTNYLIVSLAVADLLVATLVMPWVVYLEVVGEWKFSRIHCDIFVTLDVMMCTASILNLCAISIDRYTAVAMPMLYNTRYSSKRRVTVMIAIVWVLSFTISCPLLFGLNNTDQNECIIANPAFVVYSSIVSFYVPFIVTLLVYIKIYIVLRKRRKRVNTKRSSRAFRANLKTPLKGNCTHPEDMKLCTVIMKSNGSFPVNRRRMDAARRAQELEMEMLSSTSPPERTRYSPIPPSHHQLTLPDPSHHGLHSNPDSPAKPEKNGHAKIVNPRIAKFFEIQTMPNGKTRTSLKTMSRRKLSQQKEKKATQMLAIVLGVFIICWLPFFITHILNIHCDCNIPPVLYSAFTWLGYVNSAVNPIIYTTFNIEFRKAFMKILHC

CCCN1CCCC(c2cccc(C#N)c2)C1 (racemic) [(±)-34, 3-(3-cyanophenyl-N-n-propyl)piperidine]
half-life ([1]; iv): ~3 h | bioavailability ([1]; po, oral bioavailability): ~78% | direct receptor agonistic effects in reserpinized rats [2]: no direct receptor agonistic effects

CCCN[C@@H]1CCc2c(OC)cccc2[C@@H]1C [(+)-AJ76, (+)-cis-1S,2R-5-methoxy-1-methyl-2-(N-n-propylamino)tetralin]
effect on activation induced by high dose d-amphetamine [3]: clearly blocked the stimulation | Dopa accumulation in normal animals [4]: raise the Dopa accumulation | locomotor activity (photocell motility meters) [5]: increase the locomotor activity | levels of the DA metabolites DOPAC and HVA [6]: raise the levels of the DA metabolites DOPAC and HVA | oral availability [7]: approximately 3% | preference for the D3 site [8]: highest preference for the D3 site

CCCN(CCC)[C@@H]1CCc2c(OC)cccc2[C@@H]1C [(+)-UH232, (+)-cis-1S,2R-5-methoxy-1-methyl-2-(N,N-di-n-propylamino)tetralin]
Dopa accumulation in normal animals [4]: raise the Dopa accumulation | locomotor activity (photocell motility meters) [5]: increase the locomotor activity | levels of the DA metabolites DOPAC and HVA [6]: raise the levels of the DA metabolites DOPAC and HVA | oral availability [7]: approximately 6% | preference for the D3 site [8]: highest preference for the D3 site

CCCN1CCC[C@H](c2cccc(C#N)c2)C1 [R-(+)-34, R-(+)-3-(3-Cyanophenyl-N-n-propyl)piperidine]
affinity for D2 receptors (in words) ([9]; (3H)-Spiperone binding): essentially no affinity for D2 receptors | IC50 ([9]; read-out: in vitro binding IC50, D2 -spip, [3H]-spiperone, rat striatum): 100 µM | IC50 [10]: 14 µM | 5-HTP acc Limbic Region ([11]; 50 po): 99 ± 3 % of saline controls | 5-HTP acc Limbic Region ([11]; 50 sc): 82 ± 1 % of saline controls | response vs control in vivo at 100 µmol/kg ([12]; read-out: DOPAC limbic): 120 ± 5% | response vs control in vivo at 100 µmol/kg ([12]; read-out: DOPAC striatum): 117 ± 3% | limbic DOPAC levels (in words) ([12]; rat, in vivo): only weakly elevated limbic DOPAC | Behavioral observations ([13]; 100 μmol/kg sc): Activation | locomotor activity in habituated rats (in words) [13]: stimulates the locomotor activity in habituated rats | motor activity in reserpinized rats ([14]; 50 μmol/kg, sc, reserpine 5 mg/kg, 18 h before): 6±2 counts/30 min | DA synthesis rate / DOPA accumulation in reserpinized rats (in words) ([14]; reserpinized rats): failed to produce locomotor stimulation or to affect the DA synthesis rate in reserpinized rats | locomotor stimulation in reserpinized rats (in words) ([14]; reserpinized rats): failed to activate the reserpinized rats | locomotor stimulation in reserpinized rats (in words) ([14]; reserpinized rats, listed as (R)-34): failed to produce locomotor stimulation | DOPA acc Cortex ([15]; 50 po): 103 ± 9 % of saline controls | DOPA acc Stratium ([15]; 50 po): 172 ± 8 % of saline controls | DOPA acc Cortex ([15]; 50 sc): 145 ± 11 % of saline controls | DOPA acc Stratium ([15]; 50 sc): 281 ± 11 % of saline controls | Gross Behavioral Observations ([16]; 50 po): No change | Motor Act. ([16]; 50 po, 30 min): 133 ± 14 % of saline controls | Gross Behavioral Observations ([16]; 50 sc): stimulat.

CN1CCc2cccc3c2[C@H]1Cc1ccc(O)c(O)c1-3 [apomorphine, reference compound]
effect on GBL-elevated limbic and striatal DA synthesis rate [17]: completely reversed
